From patent US20070208040A1, “A2A ADENOSINE RECEPTOR ANTAGONISTS” (priority 2006, published 2007)
pKi: −log10 of the molar value.

The compounds below were run against A2A adenosine receptor (UniProt P29274) (assay: A2A radioligand binding assay (displacement of 3H-MSX-2)). Settings: displacement of 2 nM 3H-MSX-2 from 15 ug A2A membrane, 23° C., 2 hours.
Set-up: species or system human
Text: A tritiated adenosine A2A antagonist, 3-(3-hydroxypropyl)-7-methyl-8-(m-methoxystyryl)-1-propargylxanthine, (3H-MSX-2, specific activity: 80 Ci/mmol), was purchased from American Radiolabeled Chemicals, Inc (St. Louis, Mo.). A tritiated adenosine A1 antagonist, 1,3-Dipropyl-8-cyclopentylxanthine ([^3H]DPCPX, specific activity: 120 Ci/mmol) was purchased from Perkin Elmer (Boston, Mass.). A tritiated adenosine A2a antagonist, 4-(2-[7-amino-2-(2-furyl)[1,2,4]triazolo[2,3-a][1,3,5]triazin-5-ylamino]ethyl)phenol ([^3H]ZM241385 specific activity: 27.4 Ci/mmol) was purchased from American Radiolabeled Chemicals, Inc (St. Louis, Mo.). Adenosine Deaminase (ADA) was purchased from Roche Molecular Biochemicals (Nutley, N.J.). GTP was purchased from Sigma. Concentrated stock solution (10 mM) of compounds was dissolved in dimethylsulfoxide (DMSO), stored at −20° C., and diluted in Tris-EDTA buffer (50 mM Tris and 1 mM EDTA, 10 mM MgCl2, pH 7.4) for use in experiments. The final content of dimethylsulfoxide in Tris-EDTA buffer during experiments was not more than 1%. Male Sprague Dawley rats, weighted 250-400 g, 8-10 weeks old, were purchased from Charles River Labs (Wilmington, Mass.).
HEK293 (Human Embryonic Kidney 293) cells stably expressing human A2A adenosine receptor or human A2B adenosine receptor were maintained in DMEM supplemented with 10% fetal bovine serum, 2 mM L-glutamine, 100 IU/ml penicillin, 50 μg/ml streptomycin and 2 μg/ml puromycin. CHO (Chinese Hamster Ovary) cells stably expressing human A1 adenosine receptor or human A3 adenosine receptor were maintained in F12K medium supplemented with 10% fetal bovine serum, 2 mM L-glutamine, 100 IU penicillin, 50 μg streptomycin and 8 μg/ml puromycin. PC12 (rat pheochromocytoma) cells were cultured in F12K medium supplemented with 10% horse serum and 2.5% fetal bovine serum, 2 mM L-glutamine, 100 IU/ml penicillin, and 50 μg/ml streptomycin. All cells were maintained at 37° C. in a humidified 5% CO2/95% air incubator and recultivated 2 times per week.
Cultured cells in 150 mm^2 dishes were washed once with PBS, detached by scrapping, collected with buffer A (10 mM HEPES, 10 mM EDTA, pH 7.4) containing protease inhibitor cocktail. Cells were then homogenized by a handheld homogenizer at a speed of 4.5 for 1 min. The homogenate was centrifuged by a Beckman ultracentrifuge at a speed of 29,000 × g for 15 min. The pellets were resuspended in buffer HE (10 mM HEPES, 1 mM EDTA, pH 7.4, with protease inhibitor cocktail), centrifuged again at 29,000 × g for 15 min. The crude membrane was resuspended using buffer HE, and protein concentration was measured by the method of Lowery with BSA as standard. Similar procedures were used for membrane preparation for fresh rat tissues. All experimental procedures were done at 4° C. Membranes were aliquot and kept at −80° C.
The binding assays utilized 15 ug of A2A membrane (human recombinant A2A membrane, rat striatal membrane, or PC 12 cell membrane) that had been treated with adenosine deaminase and 50 mM Tris-EDTA buffer (pH=7.4) followed by mixing 2 μL of serially diluted DMSO stock solution of the compounds of this invention at concentrations ranging from 10 μM to 0.1 nM or the control received 2 μL of DMSO alone, then the tritiated antagonist 3-(3-hydroxypropyl)-7-methyl-8-(m-methoxystyryl)-1-propargylxanthine (^3H-MSX-2) in Tris-EDTA buffer (50 mM Tris, 1 mM EDTA, 10 mM MgCl2, pH of 7.4) was added to achieve a final concentration of 2 nM. After incubation at 23° C. for 2 hours, the solutions were filtered using a membrane harvester with multiple washing of the membranes (3×). The filter plates were counted in scintillation cocktail affording the amount of displacement ^3H-MSX-2 by the competitive binding compositions of this invention. Radioligand binding data was analyzed using GraphPad Prism version 4.0 (San Diego, Calif.). […]

Row | Compound | pKi
1 | CCn1c(=O)c2c(C)c(-c3cc(C)cs3)sc2n(C)c1=O [XLVII, 3-ethyl-1,5-dimethyl-6-(4-methyl(2-thienyl))-1,3-dihydrothiopheno[2,3-d]pyrimidine-2,4-dione] | 6.28
2 | CCn1c(=O)c2c(C)c(-c3nccs3)sc2n(C)c1=O [XLVIII, 3-ethyl-1,5-dimethyl-6-(1,3-thiazol-2-yl)-1,3-dihydrothiopheno[2,3-d]pyrimidine-2,4-dione] | 6.70
3 | CCn1c(=O)[nH]c2sc(C(=O)NC)c(C)c2c1=O [XV, (3-ethyl-5-methyl-2,4-dioxo(1,3-dihydrothiopheno[2,3-d]pyrimidin-6-yl))-n-methylcarboxamide] | 6.17
4 | CCn1c(=O)[nH]c2sc(C)c(C)c2c1=O [XVI, 3-ethyl-5,6-dimethyl-1,3-dihydrothiopheno[2,3-d]pyrimidine-2,4-dione] | 6.16
5 | CCOC(=O)c1sc2[nH]c(=O)n(C)c(=O)c2c1C [XVII, ethyl 3,5-dimethyl-2,4-dioxo-1,3-dihydrothiopheno[2,3-d]pyrimidine-6-carboxylate] | 6.15
6 | CCn1c(=O)[nH]c2sc(-c3cnn(Cc4ccccc4)c3)c(C)c2c1=O [XVIII, 3-ethyl-5-methyl-6-[1-benzylpyrazol-4-yl]-1,3-dihydrothiopheno[2,3-d]pyrimidine-2,4-dione] | 6.12
7 | CCn1c(=O)[nH]c2sc(-c3nc(Cc4ccccc4)no3)c(C)c2c1=O [XX, 3-ethyl-5-methyl-6-[3-benzyl(1,2,4-oxadiazol-5-yl)]-1,3-dihydrothiopheno[2,3-d]pyrimidine-2,4-dione] | 6.09
8 | CCn1c(=O)[nH]c2scc(-c3ccc(C)o3)c2c1=O [XXI, 3-ethyl-5-(5-methyl(2-furyl))-1,3-dihydrothiopheno[2,3-d]pyrimidine-2,4-dione] | 6.64
9 | CCn1c(=O)c2c(-c3ccc(C)o3)csc2n(C)c1=O [XXII, 3-ethyl-1-methyl-5-(5-methyl(2-furyl))-1,3-dihydrothiopheno[2,3-d]pyrimidine-2,4-dione] | 6.05
10 | Cc1c(-c2cocn2)sc2[nH]c(=O)n(CC(C)C)c(=O)c12 [XXIII, 5-methyl-3-(2-methylpropyl)-6-(1,3-oxazol-4-yl)-1,3-dihydrothiopheno[2,3-d]pyrimidine-2,4-dione] | 7.02
11 | Cc1c(-c2cocn2)sc2c1c(=O)n(CC(C)C)c(=O)n2C [XXIV, 1,5-dimethyl-3-(2-propylmethyl)-6-(1,3-oxazol-4-yl)-1,3-dihydrothiopheno[1,3-d]pyrimidine-2,4-dione] | 6.78
12 | Cc1c(-c2ncco2)sc2[nH]c(=O)n(CC(C)C)c(=O)c12 [XXIX, 5-methyl-3-(2-methylpropyl)-6-(1,3-oxazol-2-yl)-1,3-dihydrothiopheno[2,3-d]pyrimidine-2,4-dione] | 7.12
13 | C#CCn1c(=O)[nH]c2sc(C(=O)OCC)c(C)c2c1=O [XXV, ethyl 5-methyl-2,4-dioxo-3-prop-2-ynyl-1,3-dihydrothiopheno[2,3-d]pyrimidine-6-carboxylate] | 6.52
14 | C#CCn1c(=O)c2c(C)c(C(=O)OCC)sc2n(C)c1=O [XXVI, ethyl 1,5-dimethyl-2,4-dioxo-3-prop-2-ynyl-1,3-dihydrothiopheno[2,3-d]pyrimidine-6-carboxylate] | 7.31

Other lines, results leading:

Row | pKi | Compound
15 | 6.74 | CCn1c(=O)[nH]c2sc(-c3ccc[nH]3)c(C)c2c1=O [XXVII, 3-ethyl-5-methyl-6-pyrrol-2-yl-1,3-dihydrothiopheno[2,3-d]pyrimidine-2,4-dione]
16 | 6.86 | Cc1c(C2=NCCO2)sc2[nH]c(=O)n(CC(C)C)c(=O)c12 [XXVIII, 5-methyl-3-(2-methylpropyl)-6-(1,3-oxazolin-2-yl)-1,3-dihydrothiopheno[2,3-d]pyrimidine-2,4-dione]
17 | 6.80 | Cc1c(-c2ccoc2)sc2[nH]c(=O)n(CC(C)C)c(=O)c12 [XXX, 6-(3-furyl)-5-methyl-3-(2-methylpropyl)-1,3-dihydrothiopheno[2,3-d]pyrimidine-2,4-dione]
18 | 6.82 | CCn1c(=O)[nH]c2sc(-c3cc(C)cs3)c(C)c2c1=O [XXXI, 3-ethyl-5-methyl-6-(4-methyl(2-thienyl))-1,3-dihydrothiopheno[2,3-d]pyrimidine-2,4-dione]
19 | 6.96 | CCn1c(=O)[nH]c2sc(-c3sccc3C)c(C)c2c1=O [XXXII, 3-ethyl-5-methyl-6-(3-methyl(2-thienyl))-1,3-dihydrothiopheno[2,3-d]pyrimidine-2,4-dione]
20 | 6.82 | Cc1c(-c2cccs2)sc2[nH]c(=O)n(C)c(=O)c12 [XXXIII, 3,5-dimethyl-6-(2-thienyl)-1,3-dihydrothiopheno[2,3-d]pyrimidine-2,4-dione]
21 | 6.96 | Cc1c(-c2ccco2)sc2[nH]c(=O)n(C)c(=O)c12 [XXXIV, 6-(2-furyl)-3,5-dimethyl-1,3-dihydrothiopheno[2,3-d]pyrimidine-2,4-dione]
22 | 6.60 | CCn1c(=O)c2c(C)c(-c3ccco3)sc2n(C)c1=O [XXXIX, 3-ethyl-6-(2-furyl)-1,5-dimethyl-1,3-dihydrothiopheno[2,3-d]pyrimidine-2,4-dione]
23 | 6.71 | Cc1c(-c2cccs2)sc2[nH]c(=O)n(CC3CC3)c(=O)c12 [XXXV, 3-(cyclopropylmethyl)-5-methyl-6-(2-thienyl)-1,3-dihydrothiopheno[2,3-d]pyrimidine-2,4-dione]
24 | 6.77 | Cc1c(-c2ccco2)sc2[nH]c(=O)n(CC3CC3)c(=O)c12 [XXXVI, 3-(cyclopropylmethyl)-5-methyl-6-(2-furyl)-1,3-dihydrothiopheno[2,3-d]pyrimidine-2,4-dione]
25 | 6.78 | CCn1c(=O)[nH]c2sc(-c3nccs3)c(C)c2c1=O [XXXVII, 3-ethyl-5-methyl-6-(1,3-thiazol-2-yl)-1,3-dihydrothiopheno[2,3-d]pyrimidine-2,4-dione]
26 | 6.92 | CCn1c(=O)[nH]c2sc(-c3ccccn3)c(C)c2c1=O [XXXVIII, 3-ethyl-5-methyl-6-(2-pyridyl)-1,3-dihydrothiopheno[2,3-d]pyrimidine-2,4-dione]
